# Patent publication US20200164005A1, “PHARMACEUTICAL COMPOSITIONS OF A BILE ACID DERIVATIVE AND MICROBIOME AND USES THEREOF” (Intercept Pharmaceuticals, Inc., priority 2017, published 2020)
# What was measured:
# [1] = tested on: Lactococcus lactis, Streptococcus thermophilus, and Lactobacillus casei/paracasei; test: Minimal inhibitory concentrations (MIC) of bile acids and OCA, aerobic and anaerobic; assay type: cell-based
# From the text: FIGS. 58A-58B: Minimal inhibitory concentrations (MICs) of selected Gram-positive bacterial species in response treatment with two endogenous bile acids and OCA. […] N=3 per measurement. […] N=3 per measurement.
# a (Begley et al., FEMS Microbiol Rev. 29, 625-651 (2005)), and conducted genomic analysis is consistent with the notion that specific Gram-positive taxa become proportionally more abundant during OCA administration due to enhanced proliferation. FXR-dependent inhibition of endogenous bile acid synthesis by OCA may reduce the growth inhibitory effects on Gram-positive bacterial species that are normally sensitive to bile acids. To determine if the three bacterial species with the greatest representation of pathways associated with OCA (FIG. 57A) are sensitive to bile acids, the species-specific minimal inhibitory concentrations (MIC) of the two most predominant bile acids in the human small intestine, glycochenodeoxycholic acid (GCDCA) and glycocholic acid (GCA) were determined (FIG. 58A). Since the environment of the small intestinal lumen may transition from an aerobic to anaerobic state along its length (He et al., Proceedings of the National Academy of Sciences of the United States of America, 96, 4586-4591 (1999)), MICs were determined under both aerobic and anaerobic conditions. […] Consistent with this notion, it has been shown that bile salt hydrolases (BSH), enzymes that are unique to bacteria resident in the mammalian gut where they can enhance bile acid tolerance (Begley et al., FEMS Microbiol Rev. 29, 625-651 (2005)), are missing from the genome of S. thermophilus, which is induced by OCA. It can be supported by showing that these species are sensitive to growth inhibition in vitro when exposed to physiologically-relevant concentrations of conjugated bile acids found in the small intestine. […] Since OCA is a bile acid analogue possibly capable of inhibiting bacterial growth, the MICs of OCA for the same bacterial species were determined (FIG. 58B). […] These findings support the notion that OCA treatment leads to the increased growth of bile acid sensitive bacterial taxa by suppressing endogenous bile acid synthesis.
# [2] = tested on: small intestinal microbiota; test: 16S tagged sequencing of small intestinal and fecal microbiota of OCA-treated mice; assay type: in vivo; conditions: 10 mg/kg OCA, 14 days
# From the text: FIG. 60: The effect of OCA on the composition of the proximal and distal small intestinal, as well as the feces, microbiota of mice based on 16S tagged sequencing.
# FIG. 63: Box and whisker plots of differentially abundant taxa in the distal small intestine of mice in response to treatment with OCA relative to two controls. S24-7, Clostridiaceae, and Turibacter are differentially abundant between the MC and OCA groups (fdr=0.1759, 0.04503, and 0.2332, respectively); Sutterella and Akkermansia are differentially abundant between the control and OCA groups (fdr=0.3199 for both).
# The bacterial species that increase most prominently upon OCA treatment have been reported to represent a significant proportion of the small intestinal microbiota, but are very minor constituents in stool. For example, Streptococci represent as much as 20% of the human small intestinal microbiota by 16S tagged sequencing (Dlugosz et al., Sci Rep-Uk, 5 (2015)); El Aidy et al., Curr Opin Biotechnol., 32, 14-20 (2015)). […] To determine whether OCA treatment can alter the gut microbiota composition specifically in the small intestine, mice were treated with OCA for 14 days, the microbiota composition in the proximal and distal small intestine, as well as the stool, and quantified bile acids were characterized. […] Also notable was the quantitative difference in the absolute levels of luminal bile acids in the small intestine (approximately 100-fold greater than in the feces, FIGS. 59A-59C); this is consistent with enterohepatic reabsorption of over 95% of bile acids in the terminal ileum of the small intestine (de Aguiar Vallim et al., Cell Metabolism, 17, 657-669 (2013)).
# [3] = 10 mg/day dose; cited from earlier work
structure (smiles),measurement,setting,value
"CC[C@H]1[C@@H](O)[C@@H]2[C@H](CC[C@]3(C)[C@@H]([C@H](C)CCC(=O)O)CC[C@@H]23)[C@@]2(C)CC[C@@H](O)C[C@@H]12 [OCA, 3α,7α-dihydroxy-6α-ethyl-5β-cholan-24-oic acid]",inhibition of growth of the three bacterial species (MIC determination),[1],able to inhibit growth of all three bacterial species
same,inhibition of growth at OCA concentrations calculated to be reached in the human small intestine,[1]; ˜40 mM at a 10 mg/day dose,minimal to no inhibition of growth
same,Clostriciaceae family of Firmicutes in proximal and distal small intestine,[2],increased abundance
same,Clostriciaceae family of Firmicutes in the feces,[2],not in the feces
same,overall composition of the small intestinal microbiota,[2]; versus water and methylcellulose,different from both control groups
same,OCA concentration calculated to be reached in the human small intestine,[3],~40 µM
